Converted amounts (≈) assume the structure as drawn. Marks after values point to notes of the source that are not given here.
How the values were obtained:
[1] = target: S. aureus HMGR (Staphylococcus aureus, UniProt Q9FD86); test: biochemical
[2] = system: J774A.1 cells; test: In vitro cell viability/cytotoxicity MTS assay; type: cell-based; details: 100 μM, 24 hours
Procedure: Cytotoxicity of the compounds was evaluated using J774A.1 cells (mitochondrial function) in the CellTiter 96® AQueous Non-Radioactive Cell Proliferation Assay (Promega). […] Formazan is measured by measuring the absorbance at 490 nm. Briefly, ˜2×10^4 J774A.1 cells suspended in 200 μL DMEM supplemented with 10% fetal bovine serum (FBS), L-glutamine, NaHCO3, pyridoxine-HCl, and […] glucose and preserved with 1% penicillin-streptomycin solution were seeded in 96-well plates and incubated at 37° C. in a 5% CO2 atmosphere. The cells were cultured for 24 hours (60% confluency) before the assays. The J774A.1 cells were further incubated with 100 μM of compounds (2f, […], 2j, and 2e) and DMSO as a control for 24 hours. The culture media was discarded, and the cells in each well were washed with PBS and re-suspended with 100 μL of cell culture media prior to addition of the assay reagent. The plates were incubated for 4 hours at 37° C. in a humidified 5% CO2 atmosphere. The absorbance at 490 nm was recorded using a 96-well Elisa plate reader (SoftMax ProInc., USA). Results were expressed as the percentage mean absorbance by cells upon incubation with various treatments (compounds 2f, 2j, 2i, and 2e) with respect to incubation with DMSO. The results are expressed as means from six measurements±SD.

[3] = system: Bacillus anthracis Sterne strain (34F2); type: cell-based
[4] = system: Bacillus subtilis; test: Screen and MIC/MBC against Bacillus subtilis; type: cell-based
[5] = system: Bacillus cereus; test: Screen and MIC/MBC against Bacillus cereus; type: cell-based
[6] = system: Listeria monocytogenes; test: Screen and MIC/MBC against Listeria monocytogenes; type: cell-based
[7] = system: Brucella abortus; type: cell-based
[8] = system: Candida albicans ATCC 18804; test: MIC/MFC against Candida albicans in YM broth; type: cell-based; details: yeast medium broth
Procedure: Antifungal activities of 22 HMG-CoA Reductase inhibitors were initially tested at 100 μM concentration against Candida albicans ATCC 18804.

[9] = system: Staphylococcus aureus ATCC 6538 planktonic organisms (not in biofilm); test: MIC/MBC against planktonic S. aureus ATCC 6538; type: cell-based
[10] = system: Staphylococcus aureus ATCC 6538 adherent organisms (biofilm); test: MIC/MBC in adherent-cell biofilm of S. aureus ATCC 6538; type: cell-based
Procedure: An adherent biofilm for susceptibility testing was formed using a clinical isolate of Staphylococcus aureus (ATCC 6538). S. aureus biofilms were prepared in a tissue culture non-treated polystyrene 96-well plate (Corning) and washed with phosphate-buffered saline (PBS) to remove unbound bacteria. Subsequently, serial twofold dilutions of the compounds in MHB were added to wells containing adherent organisms. The polystyrene plates were incubated for 20 h at 37° C. The MIC was taken as the lowest drug concentration at which observable growth was inhibited.

[11] = system: vancomycin resistant Enterococcus faecalis (VRE) ATCC 51299; test: MIC/MBC micro dilution against VRE; details: VRE ATCC 51299, MHB, 20 hours
[12] = system: methicillin-resistant Staphylococcus aureus (MRSA) ATCC 43300; test: MIC/MBC micro dilution against MRSA
[13] = system: MRSA; test: Time-kill assay against MRSA in MHB
[14] = system: vancomycin intermediate Staphylococcus aureus (VISA) NRS1; test: MIC/MBC against clinical VISA isolate
[15] = system: clinical methicillin-resistant Staphylococcus aureus (MRSA) isolates; test: MIC/MBC against clinical MRSA isolates
[16] = system: C. elegans infected with VRE; test: Treatment of C. elegans infected with VRE; details: VRE-infected worms, 100 μM
[17] = system: C. elegans infected with MRSA; test: Treatment of C. elegans infected with MRSA; details: MRSA-infected worms, 100 μM
[18] = target: E. faecalis II-HMGR (Enterococcus faecalis, UniProt Q9FD70); test: biochemical

Sequence of S. aureus HMGR (Q9FD86 entry or part of it): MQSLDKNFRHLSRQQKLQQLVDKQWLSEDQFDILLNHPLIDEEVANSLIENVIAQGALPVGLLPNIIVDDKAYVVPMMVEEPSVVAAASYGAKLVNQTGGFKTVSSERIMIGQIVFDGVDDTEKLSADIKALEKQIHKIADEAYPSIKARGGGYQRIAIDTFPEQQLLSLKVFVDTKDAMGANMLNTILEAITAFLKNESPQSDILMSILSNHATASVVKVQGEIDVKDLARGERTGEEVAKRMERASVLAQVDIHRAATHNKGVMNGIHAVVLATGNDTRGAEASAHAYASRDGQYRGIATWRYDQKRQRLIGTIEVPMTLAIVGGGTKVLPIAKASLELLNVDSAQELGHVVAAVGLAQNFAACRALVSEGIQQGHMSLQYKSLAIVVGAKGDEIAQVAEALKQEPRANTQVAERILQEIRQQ

`CCCCCCCCCCc1ccc(NS(=O)(=O)c2ccc(O)c(C(=O)O)c2)cc1` [Compound 2f, 5-[N-(4-decylphenyl)sulfamoyl]-2-hydroxybenzoic acid] was tested. Which IC50 [1] did it give?
Its IC50 is 7.2 µM.

And the “percentage mean absorbance at 490 nm (MTS) versus DMSO” value [2]?
The value was “no significant differences in percentage mean absorption”.

What about the “inhibition of growth in initial screen” value ([3]; 100 μM) of the same compound?
The value was “showed inhibition of growth”.

And the “Bacillus anthracis MBC” value ([3]; MHB)?
Its value is 16/16.

What about the “Bacillus anthracis MIC” value ([3]; MHB) of the same compound?
Its value is 16/16.

What about the “inhibition of growth in initial screen” value ([4]; 100 μM) of the same compound?
Its value is “showed inhibition of growth”.

And the “Bacillus subtilis MBC” value ([4]; MHB)?
Its value is 16/16.

And the “Bacillus subtilis MIC” value ([4]; MHB)?
The value was 16/16.

And the “inhibition of growth in initial screen” value ([5]; 100 μM)?
The value was “showed inhibition of growth”.

What about the “Bacillus cereus MBC” value ([5]; MHB) of the same compound?
The value was 16/16.

And the “Bacillus cereus MIC” value ([5]; MHB)?
The value was 16/16.

What about the “inhibition of growth in initial screen” value ([6]; 100 μM) of the same compound?
Its value is “showed inhibition of growth”.

What about the Listeria monocytogenes MBC ([6]; MHB) of the same compound?
The Listeria monocytogenes MBC was > 128 µM.

And the Listeria monocytogenes MIC ([6]; MHB)?
The Listeria monocytogenes MIC was 64 µM.

What about the “inhibition of growth in initial screen” value ([7]; 100 μM) of the same compound?
The value was “showed inhibition of growth”.

And the Brucella abortus (single value, head does not say MIC or MBC) ([7]; MHB)?
Its Brucella abortus (single value, head does not say MIC or MBC) is 128 µM.

What about the “Candida albicans MFC” value [8] of the same compound?
The value was 16/16.

What about the “Candida albicans MIC” value [8] of the same compound?
The value was 16/16.

And the “Planktonic organisms (not in biofilm) MBC” value [9]?
The value was 16 µM.

And the “Planktonic organisms (not in biofilm) MIC” value [9]?
Its value is 16 µM.

What about the “Adherent organisms (biofilm) MIC^b” value ([10]; S. aureus ATCC 6538, 20 h) of the same compound?
The value was 64 µM.

And the “Adherent organisms (biofilm) MBC^b” value ([10]; S. aureus ATCC 6538, regrowth 20 h in antibiotic-free MHB)?
The value was 128 µM.

What about the “VRE MBC” value [11] of the same compound?
Its value is 32/32.

And the “MRSA MBC” value ([12]; MRSA ATCC 43300, MHB, 20 hours, Table 2)?
The value was 16/16.

What about the MBC ([12]; Staphylococcus aureus) of the same compound?
The MBC was 16 µM (≈ 6.94 µg/mL).

What about the MIC ([12]; Staphylococcus aureus) of the same compound?
Its MIC is 16 µM (≈ 6.94 µg/mL).

What about the “time-kill of MRSA cells” value ([13]; 1× MIC or 2× MIC) of the same compound?
The value was “four hours are required to eliminate bacteria completely”.

And the “time-kill of MRSA cells” value ([13]; 3× MIC)?
Its value is “complete elimination of MRSA cells within a two-hour window”.

What about the MBC [14] of the same compound?
The MBC was 4 µM (≈ 1.73 µg/mL).

And the MIC [14]?
The MIC was 4 µM (≈ 1.73 µg/mL).

And the MBC ([15]; MRSA / NRS123 / USA400)?
The MBC was 16 µM (≈ 6.94 µg/mL).

And the MIC ([15]; MRSA / NRS123 / USA400)?
The MIC was 4 µM (≈ 1.73 µg/mL).

And the MBC ([15]; MRSA / NRS382 / USA100)?
Its MBC is 8 µM (≈ 3.47 µg/mL).

What about the MIC ([15]; MRSA / NRS382 / USA100) of the same compound?
The MIC was 8 µM (≈ 3.47 µg/mL).

And the MBC ([15]; MRSA / NRS383 / USA200)?
The MBC was 4 µM (≈ 1.73 µg/mL).

What about the MIC ([15]; MRSA / NRS383 / USA200) of the same compound?
Its MIC is 4 µM (≈ 1.73 µg/mL).

And the MBC ([15]; MRSA / NRS384 / USA300)?
Its MBC is 8 µM (≈ 3.47 µg/mL).

And the MIC ([15]; MRSA / NRS384 / USA300)?
Its MIC is 4 µM (≈ 1.73 µg/mL).

What about the MBC ([15]; MRSA / NRS385 / USA500) of the same compound?
The MBC was 8 µM (≈ 3.47 µg/mL).

And the MIC ([15]; MRSA / NRS385 / USA500)?
Its MIC is 4 µM (≈ 1.73 µg/mL).

And the MBC ([15]; MRSA / NRS386 / USA700)?
The MBC was 8 µM (≈ 3.47 µg/mL).

And the MIC ([15]; MRSA / NRS386 / USA700)?
Its MIC is 4 µM (≈ 1.73 µg/mL).

And the MBC ([15]; MRSA / NRS387 / USA800)?
The MBC was 8 µM (≈ 3.47 µg/mL).

What about the MIC ([15]; MRSA / NRS387 / USA800) of the same compound?
Its MIC is 4 µM (≈ 1.73 µg/mL).

And the MBC ([15]; MRSA / NRS483)?
Its MBC is 8 µM (≈ 3.47 µg/mL).

What about the MIC ([15]; MRSA / NRS483) of the same compound?
The MIC was 4 µM (≈ 1.73 µg/mL).

What about the MBC ([15]; MRSA / NRS484) of the same compound?
The MBC was 8 µM (≈ 3.47 µg/mL).

And the MIC ([15]; MRSA / NRS484)?
Its MIC is 4 µM (≈ 1.73 µg/mL).

What about the “Log CFU/worm” value ([16]; 16 hours treatment) of the same compound?
Its value is 0.70 ± 0.37 Log CFU/worm.

And the “Log Reduction” value ([16]; versus DMSO control)?
Its value is 4.20*.

What about the “Log CFU/worm” value ([17]; 16 hours treatment) of the same compound?
Its value is 2.33 ± 0.09 Log CFU/worm.

And the “Log Reduction” value ([17]; versus DMSO control)?
Its value is 2.71*.

How did the IC50 [1] turn out when `CCCCc1ccc(NS(=O)(=O)c2ccc(O)c(C(=O)O)c2)cc1` [Compound 1, 5-[N-(4-butylphenyl)sulfamoyl]-2-hydroxybenzoic acid] was run?
Its IC50 is 91 ± 5 µM.

And the IC50 [18]?
The IC50 was 5 µM.
